pKi: −log10 of the molar value.

HPK1, sequence (Q92918 1-346 limits assumed): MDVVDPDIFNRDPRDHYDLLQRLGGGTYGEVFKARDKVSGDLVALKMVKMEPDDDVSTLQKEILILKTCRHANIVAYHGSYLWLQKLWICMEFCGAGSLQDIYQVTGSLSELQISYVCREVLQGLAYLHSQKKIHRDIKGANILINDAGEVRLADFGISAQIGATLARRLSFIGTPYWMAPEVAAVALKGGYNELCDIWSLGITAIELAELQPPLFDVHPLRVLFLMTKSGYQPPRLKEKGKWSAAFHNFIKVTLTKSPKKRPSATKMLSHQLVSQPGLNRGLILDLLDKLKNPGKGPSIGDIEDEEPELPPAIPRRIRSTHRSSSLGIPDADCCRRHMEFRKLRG

The test addresses HPK1 (Homo sapiens (Human), UniProt Q92918). Description: HPK1 Lantha binding assay ("Lanth"). The conditions noted are these: binding assays; Morrison Ki fit. In short, it runs like this:
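TR-FRET binding competition using 2 nM HPK1, 2 nM Eu-anti-GST antibody and 15 nM Tracer222 at 23 °C. Compound was incubated 1 h with enzyme and antibody, then 1 h after tracer addition, with an 11-point 5-fold dilution series. Ki obtained from a Morrison fit that corrects for tracer concentration and Kd.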
`CN(CCN1CCOCC1)C(=O)c1c(N)ccc(-c2cnc3c(c2Cl)[C@]2(CC[C@](C)(C#N)C2)CN3)c1F` (relative stereo) [Compound 272a, 6-Amino-3-((1R,3S)-4′-chloro-3-cyano-3-methyl-1′,2′-dihydrospiro[cyclopentane-1,3′-pyrrolo[2,3-b]pyridin]-5′-yl)-2-fluoro-N-methyl-N-(2-morpholinoethyl)benzamide] gave a pKi of 7.51.

`CN(C)CCCN(C)C(=O)c1c(N)ccc(-c2cnc3c(c2Cl)[C@]2(CC[C@](C)(C#N)C2)CN3)c1F` (relative stereo) [Compound 275a, 6-Amino-3-((1R,3S)-4′-chloro-3-cyano-3-methyl-1′,2′-dihydrospiro[cyclopentane-1,3′-pyrrolo[2,3-b]pyridin]-5′-yl)-N-(3-(dimethylamino)propyl)-2-fluoro-N-methylbenzamide]: the pKi was 7.39.

Consider `CN1CCN(c2cccc3c(-c4cnc5c(c4Cl)[C@]4(CC[C@H](C(N)=O)C4)CN5)c[nH]c23)C(=O)C1` (relative stereo) [Compound 304a, (1R,3S)-4′-Chloro-5′-(7-(4-methyl-2-oxopiperazin-1-yl)-1H-indol-3-yl)-1′,2′-dihydrospiro[cyclopentane-1,3′-pyrrolo[2,3-b]pyridine]-3-carboxamide], for which the pKi was 7.36.

Consider `NC(=O)[C@H]1CC[C@@]2(CNc3ncc(-c4c[nH]c5c(N6CCNCC6=O)cccc45)c(Cl)c32)C1` (relative stereo) [Compound 305a, (1RS,3SR)-4′-Chloro-5′-(7-(2-oxopiperazin-1-yl)-1H-indol-3-yl)-1′,2′-dihydrospiro[cyclopentane-1,3′-pyrrolo[2,3-b]pyrdine]-3-carboxamide], for which the pKi is 7.41.

The molecule `C[C@@H]1C[C@@]12CNc1ncc(-c3c[nH]c4c(N5CCNCC5=O)cccc34)cc12` (relative stereo) [Compound 306a, 1-(3-((1R,2R)-2-methyl-1′,2′-dihydrospiro[cyclopropane-1,3′-pyrrolo[2,3-b]pyridin]-5′-yl)-1H-indol-7-yl)piperazin-2-one] gave a pKi of 7.36.

As to `C[C@]1(C#N)CC[C@@]2(CNc3ncc(-c4c[nH]c5ccc(C#N)cc45)c(Cl)c32)C1` (relative stereo) [Compound 330a, (1R,3S)-4′-Chloro-5′-(5-cyano-1H-indol-3-yl)-3-methyl-1′,2′-dihydrospiro[cyclopentane-1,3′-pyrrolo[2,3-b]pyridine]-3-carbonitrile], the negative logarithm of the Ki (pKi) was 7.13.

`C[C@]1(C(N)=O)CC[C@@]2(CNc3ncc(-c4c[nH]c5ccc(C#N)cc45)c(Cl)c32)C1` (relative stereo) [Compound 337a, (1R,3S)-4′-Chloro-5′-(5-cyano-1H-indol-3-yl)-3-methyl-1′,2′-dihydrospiro[cyclopentane-1,3′-pyrrolo[2,3-b]pyridine]-3-carboxamide] had a pKi of 7.55.

`CN(C)C(=O)c1c(N)ccc(-c2cnc3c(c2Cl)[C@@]2(CN3)C[C@@H]2CO)c1F` (single isomer, unassigned) [Compound 39c] had a pKi of 7.94.

`CN(C)C(=O)c1c(N)ccc(-c2cnc3c(c2Cl)[C@]2(CN3)C[C@H]2CO)c1F` (single isomer, unassigned) [Compound 39d] showed a pKi of 7.73.

With `Nc1cc(-c2cnc3c(c2Cl)[C@]2(CC[C@H](O)C2)CN3)cc(-c2ncccc2CO)c1` (single isomer, unassigned) [Compound 61a], the pKi was 7.41.

`Nc1cc(-c2cnc3c(c2Cl)[C@@]2(CC[C@@H](O)C2)CN3)cc(-c2ncccc2CO)c1` (single isomer, unassigned) [Compound 61b] gave a pKi of 7.92.

As to `Cn1cccc(-c2cccc(-c3cnc4c(c3Cl)C3(CC[C@@H](O)C3)CN4)c2)c1=O` (single isomer, unassigned) [Compound 68a], the pKi is 7.75.

As to `Cn1cccc(-c2cccc(-c3cnc4c(c3Cl)C3(CC[C@@H](O)C3)CN4)c2)c1=O` (single isomer, unassigned) [Compound 68b], the pKi was 8.11. This pKi lies 0.36 log units higher than the previous one.

For `CN(C)C(=O)c1c(N)ccc(-c2cnc3c(c2Cl)[C@]2(CC[C@@H](n4ccnn4)C2)CN3)c1F` (single isomer, unassigned) [Compound 90c], the pKi is 7.09.

The molecule `CN(C)C(=O)c1c(N)ccc(-c2cnc3c(c2Cl)[C@]2(CC[C@H](c4ncn[nH]4)C2)CN3)c1F` (single isomer, unassigned) [Compound 99a] had a pKi of 7.84.

For `CN(C)C(=O)c1c(N)ccc(-c2cnc3c(c2Cl)[C@]2(CC[C@H](C(N)=O)C2)CN3)c1F` (single isomer, unassigned) [Compound 100a], the pKi is 7.20.

`CN(C)C(=O)c1c(N)ccc(-c2cnc3c(c2Cl)[C@@]2(CC[C@@H](C(N)=O)C2)CN3)c1F` (single isomer, unassigned) [Compound 100b] gave a pKi of 8.76. This pKi is 1.56 log units higher than that of the molecule before.

In the case of `CN(C)C(=O)c1c(N)ccc(-c2cnc3c(c2Cl)[C@]2(CC[C@H](C(=O)O)C2)CN3)c1F` (single isomer, unassigned) [Compound 105a], the pKi is 8.01. This pKi lies 0.75 log units lower than the previous one.

As for `CN(C)C(=O)c1c(N)ccc(-c2cnc3c(c2Cl)[C@]2(CC[C@H](C(=O)N(C)C)C2)CN3)c1F` (single isomer, unassigned) [Compound 107a], the pKi is 7.30.

`CN(C)C(=O)c1c(N)ccc(-c2cnc3c(c2Cl)[C@]2(CC[C@](O)(Cn4cncn4)C2)CN3)c1F` (single isomer, unassigned) [Compound 116c] showed a pKi of 6.85.

`CN(C)C(=O)c1c(N)ccc(-c2cnc3c(c2Cl)[C@]2(CC[C@H](n4ncnc4N)C2)CN3)c1F` (single isomer, unassigned) [Compound 118a] showed a pKi of 8.07. This pKi is 1.22 log units higher than that of the molecule before.

As for `CN(C)C(=O)c1c(N)ccc(-c2cnc3c(c2Cl)[C@@]2(CCC(=O)NC2)CN3)c1F` (single isomer, unassigned) [Compound 123a], the pKi is 7.42.

In turn, `CN(C)C(=O)c1c(N)ccc(-c2cnc3c(c2Cl)[C@]2(CCC(=O)NC2)CN3)c1F` (single isomer, unassigned) [Compound 123b] gave a pKi of 6.11. Against the preceding molecule, the pKi is 1.31 log units lower.

With `C[C@H]1Nc2ncc(-c3ccc(N)c(C(=O)N(C)C)c3F)cc2C12CC2` (single isomer, unassigned) [Compound 128a], the negative logarithm of the Ki (pKi) was 7.33. This pKi is 1.22 log units higher than that of the molecule before.

`C[C@@H]1Nc2ncc(-c3ccc(N)c(C(=O)N(C)C)c3F)cc2C12CC2` (single isomer, unassigned) [Compound 128b] showed a pKi of 7.38.

`CN(C)C(=O)c1c(N)ccc(-c2cnc3c(c2Cl)[C@]2(CC[C@](C)(C#N)C2)CN3)c1F` (single isomer, unassigned) [Compound 131a] had a pKi of 8.41.

Molecule `CN(C)C(=O)c1c(N)ccc(-c2cnc3c(c2Cl)[C@]2(CC[C@@H](CC(N)=O)C2)CN3)c1F` (single isomer, unassigned) [Compound 135c] showed a negative logarithm of the Ki (pKi) of 8.53.

For the molecule `CN(C)C(=O)c1c(N)ccc(-c2cnc3c(c2Cl)[C@]2(CC[C@H](N4CCCC4=O)C2)CN3)c1F` (single isomer, unassigned) [Compound 143a], the pKi is 6.80.

As to `CN(C)C(=O)c1c(N)ccc(-c2cnc3c(c2Cl)[C@@]2(CN3)C[C@H](O)[C@@H](n3ccnn3)C2)c1F` (single isomer, unassigned) [Compound 146c], the pKi was 7.13. This pKi is 0.33 log units higher than that of the molecule before.

On to `CN(C)C(=O)c1c(N)ccc(-c2cnc3c(c2Cl)[C@@]2(CC[C@@](C)(C(N)=O)C2)CN3)c1F` (single isomer, unassigned) [Compound 155b], for which the pKi was 7.07.

In turn, `Cc1cc(C#N)nn1[C@H]1CC[C@@]2(CNc3ncc(-c4ccc(N)c(C(=O)N(C)C)c4F)c(Cl)c32)C1` (single isomer, unassigned) [Compound 162a] showed a pKi of 6.99. This pKi and that of the molecule before are within 0.2 log units of each other.

The molecule `CN(C)C(=O)c1c(N)ccc(-c2cnc3c(c2Cl)[C@]2(CC[C@H](n4ccc(C(F)(F)F)n4)C2)CN3)c1F` (single isomer, unassigned) [Compound 168a] showed a pKi of 7.58. This pKi is 0.59 log units higher than that of the molecule before.

With `Cn1cc([C@H]2CCCN2C(=O)c2cccc(-c3cnc4c(c3)C3(CC3)CN4)c2F)cn1` (single isomer, unassigned) [Compound 174a], the negative logarithm of the Ki (pKi) was 7.13.

As to `Cn1cc([C@@H]2CCCN2C(=O)c2cccc(-c3cnc4c(c3)C3(CC3)CN4)c2F)cn1` (single isomer, unassigned) [Compound 174b], the pKi is 6.24.

`Cn1cc([C@H]2CCCCN2C(=O)c2cccc(-c3cnc4c(c3)C3(CC3)CN4)c2F)cn1` (single isomer, unassigned) [Compound 175a] gave a pKi of 8.38.

The molecule `Cn1cc([C@@H]2CCCCN2C(=O)c2cccc(-c3cnc4c(c3)C3(CC3)CN4)c2F)cn1` (single isomer, unassigned) [Compound 175b] had a pKi of 6.02.

`Cn1cccc(-c2cccc(-c3cnc4c(c3Cl)[C@]3(CC[C@](C)(C(N)=O)C3)CN4)c2)c1=O` (single isomer, unassigned) [Compound 179a] had a pKi of 6.71.

With `Cn1cccc(-c2cccc(-c3cnc4c(c3Cl)[C@@]3(CC[C@@](C)(C(N)=O)C3)CN4)c2)c1=O` (single isomer, unassigned) [Compound 179b], the negative-log Ki (pKi) is 9.04.

`CC1(C#N)CCCN1C(=O)c1cccc(-c2cnc3c(c2)C2(CC2)CN3)c1F` (single isomer, unassigned) [Compound 191a]: the negative-log Ki (pKi) is 7.46.

With `CC(C)[C@H]1C[C@@]12CNc1ncc(-c3ccc(N)c(C(=O)N(C)C)c3F)c(Cl)c12` (single isomer, unassigned) [Compound 193a], the pKi was 8.44.

The molecule `CC(C)[C@@H]1C[C@]12CNc1ncc(-c3ccc(N)c(C(=O)N(C)C)c3F)c(Cl)c12` (single isomer, unassigned) [Compound 193b] gave a pKi of 8.85.

For `CN(C)C(=O)c1cccc(-c2cnc3c(c2Cl)[C@]2(CC[C@](C)(C(N)=O)C2)CN3)c1F` (single isomer, unassigned) [Compound 195b], the pKi was 8.21.

In turn, `CCC[C@H]1C[C@@]12CNc1ncc(-c3ccc(N)c(C(=O)N(C)C)c3F)c(Cl)c12` (single isomer, unassigned) [Compound 197a] had a pKi of 8.29.

As usually defined, the pKi is −log10 of the Ki, conventionally taken in molar units. Read a high pKi as a small Ki.

The record behind these values is patent US12208088B2 (Genentech, Inc., priority 2018, dated 2025).
